Patent publication US10335364B2, “Composition for topical application comprising glycerol and tannins” (priority 2013, dated 2019)

Tests used:
[1] = test system: human multilayered epidermis; assay: Glycerol film retention on in vitro human multilayered epidermis (MTT cell viability); type: cell-based
Description: In the absence of any specific in vivo model to study the duration of the film retention by a biological surface, an in vitro model of human multilayered epidermis was used to evaluate the effects of the addition of non-cytotoxic concentrations of different PCD-rich plant extracts, either singly or in different associations, on glycerol film retention. Human epidermis was grown on a permeable polycarbonate filter (1 cm diameter) and was kept on a sponge soaked with culture medium, its outer surface remaining in contact with air, as is the case in vivo. Through capillary action, the culture medium diffuses through the polycarbonate filter and supplies nourishment to the epidermal cells to keep those cells alive.
Inserting one or two additional polycarbonate filters increases the distance between the culture medium and the cells; the amount of available medium, which reaches the cells, then decreases, and in absence of nutrients and hydration, the cells die. […] The percentage of live cells is proportional to the duration of retention of the glycerol film by the epidermal surface.
Various glycerol preparations containing test products (mainly PCD-rich plant extracts), at concentrations varying between 0.1 and 5.0%.
Quantity of Test Product Applied Per Epidermis: 20 μl
Glycerol preparations were directly applied on the epidermis as thin layer with the help of a pipette (n=6 per concentration): the epidermis was placed on two filters and the test product was applied on the epidermis surface. The filters were kept on a sponge, which was inserted in a petri dish containing an appropriate quantity of medium to nourish the cells. […]
The cell viability was scored as follows: • Score 4: 100% cells (compared to the controls) with intense blue color. • 3: Approximately 75% live cells with dark blue color. • 2: Approximately 50% live cells with medium blue color. • 1: Approximately 25% live cells with light blue color. • 0: No live cells, whitish epidermis color. […]

diabetic ulcers = conditions: human, in vivo
Description: Samples of wound fluid (100 μl) were collected at hourly intervals over a 6 h period, and the quantity of glycerol was measured.

[2] = test system: human epidermis (normal human epithelial cells); assay: In vitro osmotic/hydrating properties on dehydrated human epidermis culture; type: cell-based; conditions: 20 μl, day 7, filmogen glycerol = preparation n° 2 in Example 5 (Orosol)
From the text: In the absence of in vivo models to mimic the osmotic exudation of hypotonic liquid from the oral or vaginal mucosa, a cell culture model of human epidermis was used which contains normal human epithelial cells grown on a polycarbonate filter in an air/liquid phase. Under optimal conditions, a multilayered cell culture, equivalent to the mucosal surface is obtained on a polycarbonate support. This support is placed on a sponge in contact with a defined amount of culture medium. The medium diffuses into the sponge and the filter, and supplies nutrients as well as hydration to the cells. Under these conditions, the cell culture can be kept alive for at least a week.
To create an experimental model of mucosa dryness, we inserted one or two extra filters between the cells and the sponge, thereby reducing the amount of liquid medium available to the cells. In absence of hydration, cells die, and the cell mortality can be measured with a vital dye MU. Cell mortality is proportional to the culture surface's dryness. […]
The aim of this study was to evaluate the hydrating properties of filmogen glycerol compared to regular glycerol. […] Each epidermis was washed by stirring the culture in culture medium for 20 seconds on days 1, 3 and 5, and cell viability was measured on day 7 using MU staining.

rat dorsal skin lesions = assay: In vivo rat wound healing; conditions: 0.2 ml per lesion for 7 consecutive days, filmogen glycerol as per the example N° 6
Description: The rat dorsal skin was shaved and 3 circular lesions, […] in diameter and depth, were made to the hypodermis with a dermatome. 0.2 ml of each test product was applied on each lesion for 7 consecutive days. Lesion diameter was measured every day and mean values were compared.

[3] = test system: free virus particles present on the surface of labial herpes lesions; assay: Clinical study 3: free virus particles on labial herpes lesions (Tzank test); type: in vivo, human (patients); conditions: labial lesion smears, twice daily application
Description: Labial lesion smears were collected and mean virus concentration was measured by quantifying the number of multinucleated virus-infected giant cells in each lesion using Tzank test, and the mean amount of free virus particles was determined in both groups.

[4] = test system: nasal sinus infection (rhinosinusitis); assay: Clinical study 4: rhinosinusitis; type: in vivo, human (patients)
Description: A 21-day controlled clinical trial of G-PCD compared to glycerol alone in patients suffering from acute symptoms of nasal sinus infection was performed.
The aim of this study was to evaluate the sinus-opening efficacy of G-PCD solution (32% glycerol, 1% plant PCDs in water) as per the example N° 5, compared to glycerol alone (32% glycerol in water). Among 127 patients suffering from acute and chronic sinusitis 109 were selected for the study. 58 patients were treated with G-PCD and 51 with glycerol. Products were administered as sprays (3 at each treatment application), 2-3 times per day for a maximum period of 21 days.
The parameters studied were: 1. Effect on nasal congestion and runny nose; 2. Effect on pain upon pressure around the nasal sinus surface; 3. Overall condition of the patient with respect to sinus infection; and 4. The influence on antibiotic therapy. […] Only 21% patients in the G-PCD group required antibiotic therapy for an average 7.41 days compared to 40% in the glycerol group for a period of 10.5 days (FIG. 8)

[5] = Osmolality and osmotic pressure of glycerol and seawater; type: physicochemical; conditions: pure glycerol
From the text: An injured skin or mucosa acts as a semi-permeable membrane and allows osmosis to occur. The flow of solvents across a semi-permeable membrane constitutes the osmotic flow or osmosis. The pressure required to achieve osmotic equilibrium is known as osmotic pressure. The higher the concentration of a […], the more osmotic pressure it exerts. Fresh water is considered isotonic with a density of 1000 kg/m^3. […] Osmotic pressure exerted by glycerol is nearly 10 times higher compared to seawater. The solute concentration of glycerol is also much higher compared to seawater. It is the total solute concentration in a solution that determines the osmotic flow of liquid, as osmosis is driven by differences in solute/solvent concentrations that exist across a semi-permeable membrane. The total solute concentration can be determined through the osmolality of the solution. […] Therefore, glycerol could have been a product of choice for application on infected surfaces in order to generate osmotic outflow of hypotonic liquid and to clean the injury. Unfortunately, the exudating hypotonic liquid immediately dilutes the glycerol and drains it from the wound surface within a few minutes, limiting these cleaning effects.

[6] = seawater containing […] NaCl; pure glycerol; cited from earlier work
[7] = spray 2-3 times per day, glycerol = 32% glycerol in water

SMILES: OCC(O)CO [glycerol]
- cell survival % after 72 h ([1]; 20 μl on epidermis placed on two filters, 37° C., 5% CO2, 72 h, MTT): 23.85 (±4.8) %
- higher cell survival compared to the positive controls ([1]; 72 h, positive controls without product 6.32%): 17.53%
- cells die within 72 h ([1]; glycerol control, free of any PCD extract): 60-70%
- glycerol eliminated from the wound within 1 hour (diabetic ulcers; 1 h): ~92%
- glycerol eliminated from the wound within 2 hours (diabetic ulcers; 2 h): 100%
- Mean score of cell survival after 1-week culture, partially dehydrated cultures ([2]; 1 extra filter): 62.3%
- Mean score of cell survival after 1-week culture, severely dehydrated cultures ([2]; 2 extra filters): 43.15%
- Mean lesion size (diameter/day/lesion during 7 days) (rat dorsal skin lesions): 2.95 cm^2
- mean amount of free virus particles, day 1 [3]: > 750
- mean amount of free virus particles, day 4 [3]: 635 (±17.51)
- mean amount of free virus particles, day 7 [3]: 542 (±22.35.)
- mean amount of free virus particles, day 14 [3]: 522 (±13.50)
- patients requiring antibiotic therapy ([4]; 21-day trial): 40%
- average duration of antibiotic therapy ([4]; patients who required antibiotics): 10.5 days
- nasal congestion symptom change after 30 minutes [4, 7]: −20.40%
- nasal congestion symptom change after 3 days [4, 7]: −19.09%
- nasal congestion symptom change after 7 days [4, 7]: −30.25%
- overall rhinosinusitis condition change after 30 minutes [4, 7]: −22.56%
- overall rhinosinusitis condition change after 3 days [4, 7]: +3.52%
- overall rhinosinusitis condition change after 7 days [4, 7]: −17.62%
- sinus pain symptom change after 30 minutes [4, 7]: −1.69%
- sinus pain symptom change after 3 days [4, 7]: −8.36%
- sinus pain symptom change after 7 days [4, 7]: −53.36%
- increase in intensity of runny nose ([4]; within 30 minutes of first product administration): 31.71%
- osmotic activity compared to seawater [5]: ~18 times
- osmolality (total solute/mol wt/kg) [6]: 10.86 mols/kg
